Where a SMILES comes first, the peptide text is derived from it. Bridges are numbered along the chain shown (N, C = ends). [ ]: non-standard residue; d: D form. The star is where a group is joined. X1 = O=C(O)CN1CCN(CC(=O)O)CCN(Cc2ccc(CC(=O)*)cc2)CC1; Mpa = O=C(O)CCS
Tests used:
human V1a receptors = molecular target: T1, human V1a receptors (Homo sapiens, UniProt P37288); experiment: Scintillation proximity assay, displacement of [3H]AVP from human V1a receptor; format: binding
T1 construct: expressed in transfected cells
T1 sequence (P37288 whole entry): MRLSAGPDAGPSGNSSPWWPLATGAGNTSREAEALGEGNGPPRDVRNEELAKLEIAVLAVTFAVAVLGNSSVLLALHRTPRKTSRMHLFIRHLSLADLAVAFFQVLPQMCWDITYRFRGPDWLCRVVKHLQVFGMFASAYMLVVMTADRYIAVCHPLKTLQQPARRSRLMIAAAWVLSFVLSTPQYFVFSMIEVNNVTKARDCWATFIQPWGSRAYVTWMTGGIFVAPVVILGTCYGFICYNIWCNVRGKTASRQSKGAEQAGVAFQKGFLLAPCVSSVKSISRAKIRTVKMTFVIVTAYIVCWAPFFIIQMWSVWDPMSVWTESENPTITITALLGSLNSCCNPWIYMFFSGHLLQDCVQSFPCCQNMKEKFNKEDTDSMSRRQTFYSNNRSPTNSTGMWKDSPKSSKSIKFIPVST
Text: (§1) OT analogues were screened in scintillation proximity assays that displace [^3H]OT or [^3H]AVP from the corresponding receptors. […]
(§2) All RCYs reported are decay corrected to the time of 18F delivery. The protocols for performing
(§3) receptor radioligand binding and potency studies on transfected cells to determine affinity

in vivo = conditions: rat
Method: To investigate the plausibility of i.n. administration for OT-like therapies, given the similar structure and hydrophilic profile between AlF-NODA-dLVT and OT, in vivo tissue distribution of [^18F]AlF-NODA-dLVT was determined following i.n. or i.v. administration. […]. Here, it is anticipated that both routes show independent kinetic and metabolic profiles and the extended apparent availability of OT following i.n. administration supports a longer timeframe for this study.[27],[28] Distribution was determined through gamma counting of radioactivity in isolated tissue. A large portion underwent excretion via kidneys (i.v. 4.6 ± 0.4%ID per g; i.n. 1.31 ± 0.7%ID per g) and urine (i.v. 2.5 ± 1.2%ID per g; i.n. 7.7 ± 2.2%ID per g), as expected from the hydrophilic character of the tracer, similar to previous results found with radiolabelled OT given i.v. (Fig. 4A).[29]
Supplementary Figure 5: Pharmacokinetic data acquired from three individual rats showing plasma clearance of AlF-NODA-dLVT over time. Rats received a dose of AlF-NODA-dLVT by tail vein injection (0.08 mg/kg), and blood plasma samples were taken at the specified time point for quantitative analysis by mass spectrometry. […]
Supplementary Figure 6: Transaxial nanoPET scan showing distribution over time of [18F]AlF-NODA-dLVT. Tracer was administered either by i.v. bolus (top) or intranasally (bottom) in rat. […]

[1] = molecular target: T2, human vasopressin receptor V2 (Homo sapiens, UniProt P30518); experiment: Scintillation proximity assay, displacement of [3H]AVP from human V2 receptor; format: binding
T2 construct: expressed in transfected cells
T2 sequence (P30518 whole entry): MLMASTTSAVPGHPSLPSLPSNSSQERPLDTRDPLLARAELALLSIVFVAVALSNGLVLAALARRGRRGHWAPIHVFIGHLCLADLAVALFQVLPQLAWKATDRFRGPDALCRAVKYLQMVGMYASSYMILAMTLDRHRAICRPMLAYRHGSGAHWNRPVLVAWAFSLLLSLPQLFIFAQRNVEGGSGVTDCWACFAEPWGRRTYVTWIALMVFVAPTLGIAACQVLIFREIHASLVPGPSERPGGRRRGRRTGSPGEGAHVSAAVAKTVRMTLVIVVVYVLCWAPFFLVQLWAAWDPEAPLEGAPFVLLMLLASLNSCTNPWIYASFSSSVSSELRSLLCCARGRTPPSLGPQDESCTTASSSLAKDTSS
Text: as §1, §2, §3

human OTR = molecular target: T3, human OTR (Homo sapiens, UniProt P30559); experiment: Scintillation proximity assay, displacement of [3H]OT from human OTR; format: binding
T3 construct: expressed in transfected cells
T3 sequence (P30559 1-389): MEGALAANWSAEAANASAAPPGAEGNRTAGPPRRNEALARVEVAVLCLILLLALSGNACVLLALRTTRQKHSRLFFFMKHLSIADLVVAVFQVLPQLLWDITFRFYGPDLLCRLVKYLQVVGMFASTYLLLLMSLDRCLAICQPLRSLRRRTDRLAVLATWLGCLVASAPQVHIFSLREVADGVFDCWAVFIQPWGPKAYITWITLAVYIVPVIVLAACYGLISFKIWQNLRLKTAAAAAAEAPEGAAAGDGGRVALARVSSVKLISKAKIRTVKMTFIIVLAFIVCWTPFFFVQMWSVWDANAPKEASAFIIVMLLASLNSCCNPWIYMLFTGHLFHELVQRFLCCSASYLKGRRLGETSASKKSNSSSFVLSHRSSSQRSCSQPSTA
Text: as §1, §2, §3

[2] = molecular target: T4, human vasopressin receptor V1b (Homo sapiens, UniProt P47901); experiment: Scintillation proximity assay, displacement of [3H]AVP from human V1b receptor; format: binding
T4 construct: expressed in transfected cells
T4 sequence (P47901 1-424): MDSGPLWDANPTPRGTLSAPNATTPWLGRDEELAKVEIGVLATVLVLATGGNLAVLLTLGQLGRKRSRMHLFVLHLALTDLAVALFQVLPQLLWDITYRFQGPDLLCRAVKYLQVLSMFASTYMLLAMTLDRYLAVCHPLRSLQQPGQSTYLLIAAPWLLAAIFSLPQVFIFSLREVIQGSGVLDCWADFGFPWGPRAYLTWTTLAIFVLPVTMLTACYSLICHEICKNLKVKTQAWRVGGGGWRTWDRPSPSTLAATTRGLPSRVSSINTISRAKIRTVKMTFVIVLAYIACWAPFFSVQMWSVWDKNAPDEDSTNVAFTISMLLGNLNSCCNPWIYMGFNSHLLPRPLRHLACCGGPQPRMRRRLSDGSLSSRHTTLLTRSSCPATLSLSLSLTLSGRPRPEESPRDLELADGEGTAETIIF
Text: OT analogues were screened in scintillation proximity assays that displace [^3H]OT or [^3H]AVP from the corresponding receptors. All peptides screened, including in a reduced state, preferentially bound human OTR with nanomolar affinity (Table 1). In line with previous studies, conjugation of a large group to position 8 afforded analogues with increased selectivity and improved affinity towards OTR[15] (approximately 60-fold for AlF-NODA-dLVT, and 7-fold for dLVT; Table 1 and ESI, ^† Fig. S1). […]. […]
tracer, a probe for nose-to-brain oxytocin uptake in vivo
Rhiannon Beard1; Nisha Singh2,3; Christophe Grundschober4; Antony D. Gee2 and Edward W. […]
a.1Department of Chemistry, Imperial College London, Exhibition Road, London, SW7 2AZ, UK; 2Division of Imaging Sciences, King’s College London, 4th Floor, Lambeth Wing, St Thomas’ Hospital, SE1, 7EH, London, UK; 3Centre for Neuroimaging Sciences, IoPPN, KCL, De Crespigny Park, London, SE5 8AF, UK; and 4 Roche Pharma Research and Early Development, Discovery Neuroscience, Roche Innovation Center Basel, F. Hoffmann-La Roche Ltd, Grenzacherstrasse 124, 4070 Basel, Switzerland […]
All RCYs reported are decay corrected to the time of 18F delivery. The protocols for performing receptor radioligand binding and potency studies on transfected cells to determine affinity constants have been reported elsewhere. 1 […]

Ki (human V1a receptors): 157 ± 26 nM
half-life (in vivo; Wistar, iv, 0.08 mg/kg): 14 min
increase in half-life compared to OT (in vivo): approximately 5 fold
Ki [1]: > 6000 nM
selectivity towards OTR (human OTR; OTR over V1a, from Ki values of Table 1): approximately 60 fold
Ki (human OTR; human OTR): 2.6 ± 1.7 nM
Ki [2]: > 6000 nM
SMILES: CC[C@H](C)[C@@H]1NC(=O)[C@H](Cc2ccc(O)cc2)NC(=O)CCSSC[C@@H](C(=O)N2CCC[C@H]2C(=O)N[C@@H](CCCCNC(=O)Cc2ccc(CN3CCN(CC(=O)O)CCN(CC(=O)O)CC3)cc2)C(=O)NCC(N)=O)NC(=O)[C@H](CC(N)=O)NC(=O)[C@H](CCC(N)=O)NC1=O [AlF-NODA-dLVTc] ([Mpa]YIQNCPK(X1)G-NH2; disulfide 1-6)
